Legend:
[1] = biological target: CK1ε (Homo sapiens, UniProt P49674); assay: CK1ε kinase activity assay (Caliper, FAM-labelled polypeptide); assay type: biochemical
Description: The in-vitro assay of inhibitory activity of the compound herein against CK1ε kinase was:
(1) preparation of 1× kinase basic buffer and stop buffer: • 1×kinase basic buffer: 50 mM HEPES, pH 7.5; and 0.0015% Brij-35; • stop buffer: 100 mM HEPES, pH 7.5; 0.015% Brij-35; 0.2% Coating Reagent #3; and 50 mM EDTA.
(2) preparation of the test compound: • a 50× (“n×” represents dilution factor, same hereafter) stock solution of the compound with DMSO (10 mM, DMSO) to obtain stock solution I for use; […] of stock solution I was placed in a 96-well plate, each compound sample was diluted by 5-fold serial dilution till 10 concentrations was obtained while ensuring 10 μl of drug solution in each well; meanwhile, 100 μl of DMSO was used as a blank control group and a negative control group without enzyme substrate; • a separate 96-well plate was prepared, and to 10 μl of the above compound,
90 μl of 1× kinase foundation buffer was added, mixed well for 10 min to obtain a mixture.

[2] = system: OCI-LY10 cells; assay: In-vitro anti-tumor activity, OCI-LY10 cells, CCK-8; assay type: cell-based, human; conditions: Homo sapiens; OCI-LY10, 72h, CCK-8; read-out: IC50
Description: The in-vitro anti-tumor activities of the synthesized compounds were determined using a diffuse large B-cell lymphoma (OCI-LY10) cell strain:
Drug preparation method: The drug was dissolved in DMSO to make a stock solution of 10 mM and diluted in a certain ratio to obtain 7 different concentrations (test concentration: 100×).
In vitro culture of tumor cells: The selected OCI-LY10 cells were incubated with a medium of IMDM+fetal bovine serum in a 5% CO2 cell culture incubator at 37° C., and were passaged when the cell density grew to 70-90% (adherent cells were passaged after digestion with Duck's EDTA) for later experiments as needed. Four thousand cells/200 μl/well were seeded in a 96-well plate and incubated overnight in a 5% CO2 cell incubator at 37° C. Two μl of the compounds were dispensed in each well at final concentrations of […], and incubation was performed together for 72h in a 5% CO2 cell incubator at 37° C. with DMSO (2%) as control. After 72h, 20 μl of CCK-8 solution was added and the plate was placed in a 5% CO2 cell culture incubator at 37° C. for 4h. Wells with the corresponding amounts of cell culture medium and CCK-8 solution but without cells were used as blank controls. The absorbance (OD values) was measured at 450 nm using an enzyme marker, and the obtained data were used to calculate the IC50.

CK1ε, sequence (P49674 whole entry): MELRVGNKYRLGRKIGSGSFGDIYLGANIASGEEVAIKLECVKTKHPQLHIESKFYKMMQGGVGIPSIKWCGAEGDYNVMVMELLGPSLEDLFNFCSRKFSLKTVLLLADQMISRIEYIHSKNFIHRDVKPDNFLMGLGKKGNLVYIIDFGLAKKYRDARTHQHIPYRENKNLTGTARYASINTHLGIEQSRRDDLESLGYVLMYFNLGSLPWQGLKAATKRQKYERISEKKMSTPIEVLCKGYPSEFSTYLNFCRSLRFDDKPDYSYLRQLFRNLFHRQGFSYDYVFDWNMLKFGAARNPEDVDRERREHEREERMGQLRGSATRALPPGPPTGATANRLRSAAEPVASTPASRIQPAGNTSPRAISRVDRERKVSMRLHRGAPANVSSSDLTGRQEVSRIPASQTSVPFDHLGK

SMILES | IC50 [1] [nM] | other results
CC(C)Oc1ccc(-c2nn(C(C)c3nc4ccccc4c(=O)n3-c3ccccc3)c3ncnc(N)c23)cc1F (centres unmarked) [Compound A, reference compound] | 1730 | –
CC(c1nc2ccccc2c(=O)n1-c1ccccc1)n1nc(-c2ccc(OC3CC3)c(F)c2)c2c(N)ncnc21 (centres unmarked) [Compound B, reference compound] | 2710 | –
COc1ccc(-c2nn(C(C)c3nc4cccc(Cl)c4c(=O)n3-c3ccccc3)c3ncnc(N)c23)cc1F (centres unmarked) [Compound C, reference compound] | 701 | IC50 [2]: 2700 nM
CC(C)Oc1ccc(-c2nn(C(C)c3nc4cccc(F)c4c(=O)n3-c3ccccc3)c3ncnc(N)c23)cc1F (centres unmarked) [Compound D, reference compound] | 1290 | IC50 [2]: 746 nM
COc1ccc(-c2nn([C@H](C)c3nc4ccccc4c(=O)n3-c3ccccc3)c3ncnc(N)c23)c(F)c1F [II-A-1b, (R)-2-(1-(4-amino-3-(2,3-difluoro-4-methoxyphenyl)-1H-pyrazolo[3,4-d]pyrimidin-1-yl)ethyl)-3-phenylquinazolin-4(3H)-one] | 484 | –
CC(C)Oc1ccc(-c2nn([C@H](C)c3nc4ccccc4c(=O)n3-c3ccccc3)c3ncnc(N)c23)c(F)c1F [II-A-2b, (R)-2-(1-(4-amino-3-(2,3-difluoro-4-isopropoxyphenyl)-1H-pyrazolo[3,4-d]pyrimidin-1-yl)ethyl)-3-phenylquinazolin-4(3H)-one] | 450 | –
CC(c1nc2ccccc2c(=O)n1-c1ccccc1)n1nc(-c2ccc(OC3CC3)c(F)c2F)c2c(N)ncnc21 (centres unmarked) [II-A-4, 2-(1-(4-amino-3-(4-cyclopropoxy-2,3-difluorophenyl)-1H-pyrazolo[3,4-d]pyrimidin-1-yl)ethyl)-3-phenylquinazolin-4(3H)-one] | 234 | fold increase of inhibitory activity against CK1ε ([1]; compared to compound B): 12 fold
COc1ccc(-c2nn(C(C)c3nc4ccccc4c(=O)n3-c3ccccc3)c3ncnc(N)c23)c(F)c1Cl (centres unmarked) [II-A-5, 2-(1-(4-amino-3-(3-chloro-2-fluoro-4-methoxyphenyl)-1H-pyrazolo[3,4-d]pyrimidin-1-yl)ethyl)-3-phenylquinazolin-4(3H)-one] | 386 | –
COc1ccc(-c2nn(C(C)c3nc4cccc(Cl)c4c(=O)n3-c3cccnc3)c3ncnc(N)c23)c(F)c1F (centres unmarked) [II-B-2, 2-(1-(4-amino-3-(2,3-difluoro-4-methoxyphenyl)-1H-pyrazolo[3,4-d]pyrimidin-1-yl)ethyl)-5-chloro-3-(pyridin-3-yl)quinazolin-4(3H)-one] | 372 | IC50 [2]: 193 nM
COc1ccc(-c2nn(C(C)c3nc4cccc(Cl)c4c(=O)n3N3CCCCC3)c3ncnc(N)c23)c(F)c1F (centres unmarked) [II-C-5, 2-(1-(4-amino-3-(2,3-difluoro-4-methoxyphenyl)-1H-pyrazolo[3,4-d]pyrimidin-1-yl)ethyl)-5-chloro-3-(piperidin-1-yl)quinazolin-4(3H)-one] | 299 | IC50 [2]: 307 nM

More lines, in order of falling IC50 [1], values ahead:

IC50 [1] [nM] | SMILES | other results
232 | CCOc1ccc(-c2nn(C(C)c3nc4ccccc4c(=O)n3-c3ccccc3)c3ncnc(N)c23)c(F)c1F (centres unmarked) [II-A-3, 2-(1-(4-amino-3-(4-ethoxy-2,3-difluorophenyl)-1H-pyrazolo[3,4-d]pyrimidin-1-yl)ethyl)-3-phenylquinazolin-4(3H)-one] | –
202 | COc1cc(F)c(-c2nn(C(C)c3nc4ccccc4c(=O)n3-c3ccccc3)c3ncnc(N)c23)c(F)c1 (centres unmarked) [II-A-12, 2-(1-(4-amino-3-(2,6-difluoro-4-methoxyphenyl)-1H-pyrazolo[3,4-d]pyrimidin-1-yl)ethyl)-3-phenylquinazolin-4(3H)-one] | –
202 | COc1ccc(-c2nn([C@@H](C)c3nc4cccc(Cl)c4c(=O)n3-c3cccnc3)c3ncnc(N)c23)c(F)c1F [II-B-2a, (S)-2-(1-(4-amino-3-(2,3-difluoro-4-methoxyphenyl)-1H-pyrazolo[3,4-d]pyrimidin-1-yl)ethyl)-5-chloro-3-(pyridin-3-yl)quinazolin-4(3H)-one] | –
145 | CC(C)Oc1ccc(-c2nn(C(C)c3nc4ccccc4c(=O)n3-c3ccccc3)c3ncnc(N)c23)c(F)c1F (centres unmarked) [II-A-2, 2-(1-(4-amino-3-(2,3-difluoro-4-isopropoxyphenyl)-1H-pyrazolo[3,4-d]pyrimidin-1-yl)ethyl)-3-phenylquinazolin-4(3H)-one] | fold increase of inhibitory activity against CK1ε ([1]; compared to compound A): 12 fold; IC50 [2]: 234 nM
118 | COc1ccc(-c2nn(C(C)c3nc4cccc(F)c4c(=O)n3-c3ccccc3)c3ncnc(N)c23)c(F)c1F (centres unmarked) [II-A-8, 2-(1-(4-amino-3-(2,3-difluoro-4-methoxyphenyl)-1H-pyrazolo[3,4-d]pyrimidin−1-yl)ethyl)-5-fluoro-3-phenylquinazolin-4(3H)-one] | –
100 | COc1ccc(-c2nn(C(C)c3nc4ccc(F)cc4c(=O)n3-c3ccccc3)c3ncnc(N)c23)c(F)c1F (centres unmarked) [II-A-9, 2-(1-(4-amino-3-(2,3-difluoro-4-methoxyphenyl)-1H-pyrazolo[3,4-d]pyrimidin-1-yl)ethyl)-6-fluoro-3-phenylquinazolin-4(3H)-one] | –
100 | CC(C)Oc1ccc(-c2nn(C(C)c3nc4cccc(F)c4c(=O)n3-c3ccccc3)c3ncnc(N)c23)c(F)c1F (centres unmarked) [II-A-16, 2-(1-(4-amino-3-(2,3-difluoro-4-isopropoxyphenyl)-1H-pyrazolo[3,4-d]pyrimidin-1-yl)ethyl)-5-fluoro-3-phenylquinazolin-4(3H)-one] | fold increase of inhibitory activity against CK1ε ([1]; compared to CUX-031773): 93.6 fold; fold increase of inhibitory activity against CK1ε ([1]; compared to compound D): 12.9 fold
89 | COc1ccc(-c2nn(C(C)c3nc4cccc(Cl)c4c(=O)n3-c3cncc(F)c3)c3ncnc(N)c23)c(F)c1F (centres unmarked) [II-B-3, 2-(1-(4-amino-3-(2,3-difluoro-4-methoxyphenyl)-1H-pyrazolo[3,4-d]pyrimidin-1-yl)ethyl)-5-chloro-3-(5-fluoropyridin-3-yl)quinazolin-4(3H)-one] | –
88 | CC(C)Oc1ccc(-c2nn([C@@H](C)c3nc4ccccc4c(=O)n3-c3ccccc3)c3ncnc(N)c23)c(F)c1F [II-A-2a, (S)-2-(1-(4-amino-3-(2,3-difluoro-4-isopropoxyphenyl)-1H-pyrazolo[3,4-d]pyrimidin-1-yl)ethyl)-3-phenylquinazolin-4(3H)-one] | –
60 | COc1ccc(-c2nn([C@@H](C)c3nc4cccc(F)c4c(=O)n3-c3ccccc3)c3ncnc(N)c23)c(F)c1F [II-A-8a, (S)-2-(1-(4-amino-3-(2,3-difluoro-4-methoxyphenyl)-1H-pyrazolo[3,4-d]pyrimidin-1-yl)ethyl)-5-fluoro-3-phenylquinazolin-4(3H)-one] | –

From patent US20220251092A1, “CASEIN KINASE 1EPSILON INHIBITOR, PHARMACEUTICAL COMPOSITION AND APPLICATION THEREOF” (HANGZHOU HEALZEN THERAPEUTICS CO., LTD., priority 2019, published 2022)
